Test results taken from ChEMBL document CHEMBL1158915, “The Effect of Aridanin Isolated from Tetrapleuratetraptera and Serotonin on the Isolated Gastrointestinal Tract Smooth Muscles of Biomphalaria glabrata and Uptake of Calcium” (1990).
The source made the active and inactive calls. The calls are words filed in the database; no cut-off is given here.

Columns and labels:
Esophagus [1] = assay: Effect on Biomphalaria glabrata esophageal rhythmicity assessed as increase in phasic contraction in relaxation phase at 1.92 x 10^-8 to 4 x 10^-7 M; type: functional, tissue-based
Esophagus [2] = assay: Effect on Biomphalaria glabrata esophageal rhythmicity assessed as tissue contraction in presence of 8.5 to 320 nM cyproheptadine; type: functional, tissue-based
Esophagus [3] = assay: Effect on Biomphalaria glabrata esophageal rhythmicity assessed as potentiation in amplitude of contraction at 4.8 x 10^-10 M; type: functional, tissue-based
Biomphalaria glabrata [4] = assay: Effect on Biomphalaria glabrata intestinal rhythmicity assessed as potentiation in amplitude of contraction at 4.8 x 10^-10 M; type: functional, tissue-based; conditions: Intestine
Esophagus [5] = assay: Effect on Biomphalaria glabrata esophageal rhythmicity assessed as increase in contraction at 1.0 x 10^-7 to 9.6 x 10^-6 M; type: functional
Biomphalaria glabrata [6] = assay: Effect on Biomphalaria glabrata intestinal rhythmicity assessed as increase in contraction at 1.2 x 10^-6 to 1.9 x 10^-5 M; type: functional, tissue-based; conditions: Intestine
Biomphalaria glabrata [7] = assay: Effect on Biomphalaria glabrata intestinal rhythmicity assessed as tissue contraction in presence of 8.5 to 320 nM cyproheptadine; type: functional, tissue-based; conditions: Intestine
Esophagus [8] = assay: Effect on Biomphalaria glabrata esophageal rhythmicity assessed as tissue contraction in presence of 8.5 to 320 nM methysergide; type: functional, tissue-based
Biomphalaria glabrata [9] = assay: Effect on Biomphalaria glabrata intestinal rhythmicity assessed as tissue contraction in presence of 8.5 to 320 nM methysergide; type: functional, tissue-based; conditions: Intestine
Esophagus [10] = assay: Effect on Biomphalaria glabrata esophageal rhythmicity assessed as enhanced tissue contracture at 4.0 x 10^-7 to 3 x 10^-6 M; type: functional, tissue-based
Biomphalaria glabrata [11] = assay: Effect on Biomphalaria glabrata intestinal rhythmicity assessed as enhanced tissue contracture at 4.0 x 10^-7 to 3 x 10^-6 M; type: functional, tissue-based; conditions: Intestine
Esophagus [12] = assay: Effect on Biomphalaria glabrata esophageal rhythmicity assessed as potentiation of tissue contracture in presence of 0.1 uM verapamil; type: functional
Biomphalaria glabrata [13] = assay: Effect on Biomphalaria glabrata intestinal rhythmicity assessed as potentiation of tissue contracture in presence of 0.1 uM verapamil; type: functional, tissue-based; conditions: Intestine
Esophagus [14] = assay: Effect on Biomphalaria glabrata esophageal rhythmicity assessed as potentiation of tissue contracture in presence of 1 to 100 nM cyproheptadine; type: functional, tissue-based
Biomphalaria glabrata [15] = assay: Effect on Biomphalaria glabrata intestinal rhythmicity assessed as potentiation of tissue contracture in presence of 1 to 100 nM cyproheptadine; type: functional, tissue-based; conditions: Intestine
Esophagus [16] = assay: Effect on Biomphalaria glabrata esophageal rhythmicity assessed as potentiation of tissue contracture in presence of 0.1 mM lanthanum; type: functional, tissue-based
Biomphalaria glabrata [17] = assay: Effect on Biomphalaria glabrata intestinal rhythmicity assessed as potentiation of tissue contracture in presence of 0.1 mM lanthanum; type: functional, tissue-based; conditions: Intestine
Esophagus [18] = assay: Effect on Biomphalaria glabrata esophageal rhythmicity assessed as potentiation of tissue contracture in presence of 1 to 100 nM methysergide; type: functional, tissue-based
Biomphalaria glabrata [19] = assay: Effect on Biomphalaria glabrata intestinal rhythmicity assessed as potentiation of tissue contracture in presence of 1 to 100 nM methysergide; type: functional, tissue-based; conditions: Intestine
Esophagus [20] = assay: Effect on Biomphalaria glabrata esophageal rhythmicity assessed as potentiation of tissue contracture in presence of 1 uM atropine; type: functional, tissue-based
Biomphalaria glabrata [21] = assay: Effect on Biomphalaria glabrata intestinal rhythmicity assessed as potentiation of tissue contracture in presence of 1 uM atropine; type: functional, tissue-based; conditions: Intestine
Esophagus [22] = assay: Effect on Biomphalaria glabrata esophageal rhythmicity assessed as potentiation of tissue contracture in presence of 10 uM propranolol; type: functional, tissue-based
Biomphalaria glabrata [23] = assay: Effect on Biomphalaria glabrata intestinal rhythmicity assessed as potentiation of tissue contracture in presence of 10 uM propranolol; type: functional, tissue-based; conditions: Intestine
Biomphalaria glabrata [24] = assay: Inhibition of calcium uptake in Biomphalaria glabrata assessed as available calcium in test solution at 0.25 ppm after 1 week; type: functional
Biomphalaria glabrata [25] = assay: Inhibition of calcium uptake in Biomphalaria glabrata assessed as available calcium in test solution at 0.125 ppm after 1 week; type: functional
Biomphalaria glabrata [26] = assay: Inhibition of calcium uptake in Biomphalaria glabrata assessed as available calcium in test solution at 0.25 ppm after 2 weeks; type: functional
Biomphalaria glabrata [27] = assay: Inhibition of calcium uptake in Biomphalaria glabrata assessed as available calcium in test solution at 0.125 ppm after 2 weeks; type: functional
Biomphalaria glabrata [28] = assay: Inhibition of calcium uptake in Biomphalaria glabrata assessed as available calcium in test solution at 0.25 ppm after 3 weeks; type: functional
Biomphalaria glabrata [29] = assay: Inhibition of calcium uptake in Biomphalaria glabrata assessed as available calcium in test solution at 0.125 ppm after 3 weeks; type: functional
Biomphalaria glabrata [30] = assay: Inhibition of calcium uptake in Biomphalaria glabrata assessed as available calcium in test solution at 0.25 ppm after 4 weeks; type: functional
Biomphalaria glabrata [31] = assay: Inhibition of calcium uptake in Biomphalaria glabrata assessed as available calcium in test solution at 0.125 ppm after 4 weeks; type: functional
Biomphalaria glabrata [32] = assay: Inhibition of calcium uptake in Biomphalaria glabrata assessed as available calcium in test solution at 0.25 ppm after 5 weeks; type: functional
Biomphalaria glabrata [33] = assay: Inhibition of calcium uptake in Biomphalaria glabrata assessed as available calcium in test solution at 0.125 ppm after 5 weeks; type: functional
Biomphalaria glabrata [34] = assay: Inhibition of calcium uptake in Biomphalaria glabrata assessed as available calcium in test solution at 0.25 ppm after 6 weeks; type: functional
Biomphalaria glabrata [35] = assay: Inhibition of calcium uptake in Biomphalaria glabrata assessed as available calcium in test solution at 0.125 ppm after 6 weeks; type: functional
Biomphalaria glabrata [36] = assay: Inhibition of calcium uptake in Biomphalaria glabrata assessed as available calcium in test solution at 0.25 ppm after 7 weeks; type: functional
Biomphalaria glabrata [37] = assay: Inhibition of calcium uptake in Biomphalaria glabrata assessed as available calcium in test solution at 0.125 ppm after 7 weeks; type: functional
Biomphalaria glabrata [38] = assay: Inhibition of calcium uptake in Biomphalaria glabrata assessed as available calcium in test solution at 0.25 ppm after 8 weeks; type: functional
Biomphalaria glabrata [39] = assay: Inhibition of calcium uptake in Biomphalaria glabrata assessed as available calcium in test solution at 0.125 ppm after 8 weeks; type: functional
Biomphalaria glabrata [40] = assay: Inhibition of calcium uptake in Biomphalaria glabrata assessed as available calcium in test solution at 0.25 ppm after 9 weeks; type: functional
Biomphalaria glabrata [41] = assay: Inhibition of calcium uptake in Biomphalaria glabrata assessed as available calcium in test solution at 0.125 ppm after 9 weeks; type: functional
Biomphalaria glabrata [42] = assay: Inhibition of calcium uptake in Biomphalaria glabrata assessed as available calcium in test solution at 0.25 ppm after 10 weeks; type: functional
Biomphalaria glabrata [43] = assay: Inhibition of calcium uptake in Biomphalaria glabrata assessed as available calcium in test solution at 0.125 ppm after 10 weeks; type: functional

With NCCc1c[nH]c2ccc(O)cc12 the Activity (Esophagus [1]) was “Active”, the Activity (Esophagus [2]) was “inactive” and the Activity (Esophagus [3]) was “Active”. For the same molecule, the Activity (Biomphalaria glabrata [4]) was “Active”, the Activity (Esophagus [5]) was “Active” and the Activity (Biomphalaria glabrata [6]) was “Active”. The Activity (Biomphalaria glabrata [7]) was “inactive”, the Activity (Esophagus [8]) was “inactive” and the Activity (Biomphalaria glabrata [9]) was “inactive”.

In the case of CC(=O)N[C@H]1[C@H](O[C@H]2CC[C@]3(C)[C@H]4CC=C5[C@H]6CC(C)(C)CC[C@]6(C(=O)O)CC[C@@]5(C)[C@]4(C)CC[C@H]3C2(C)C)O[C@H](CO)[C@@H](O)[C@@H]1O [ARIDANIN], the Activity (Esophagus [10]) is reported as “Active”, the Activity (Biomphalaria glabrata [11]) is reported as “Active” and the Activity (Esophagus [12]) is reported as “inactive”. The Activity (Biomphalaria glabrata [13]) was “inactive”, the Activity (Esophagus [14]) was “inactive” and the Activity (Biomphalaria glabrata [15]) was “inactive”. For the same molecule, the Activity (Esophagus [16]) was “inactive”, the Activity (Biomphalaria glabrata [17]) was “inactive” and the Activity (Esophagus [18]) was “Active”. The Activity (Biomphalaria glabrata [19]) was “Active”, the Activity (Esophagus [20]) was “Active” and the Activity (Biomphalaria glabrata [21]) was “Active”. The Activity (Esophagus [22]) was “Active”, the Activity (Biomphalaria glabrata [23]) was “Active” and the Activity (Biomphalaria glabrata [24]) was 28.3 ppm. The Activity (Biomphalaria glabrata [25]) was 28.2 ppm, the Activity (Biomphalaria glabrata [26]) was 19.8 ppm and the Activity (Biomphalaria glabrata [27]) was 19.9 ppm. It also gave an Activity (Biomphalaria glabrata [28]) of 24.2 ppm, an Activity (Biomphalaria glabrata [29]) of 22.2 ppm and an Activity (Biomphalaria glabrata [30]) of 26.5 ppm. The Activity (Biomphalaria glabrata [31]) was 28.9 ppm, the Activity (Biomphalaria glabrata [32]) was 19 ppm and the Activity (Biomphalaria glabrata [33]) was 18.7 ppm. The Activity (Biomphalaria glabrata [34]) was 52.5 ppm, the Activity (Biomphalaria glabrata [35]) was 51.1 ppm and the Activity (Biomphalaria glabrata [36]) was 73 ppm. For the same molecule, the Activity (Biomphalaria glabrata [37]) was 68.7 ppm, the Activity (Biomphalaria glabrata [38]) was 47.7 ppm and the Activity (Biomphalaria glabrata [39]) was 49.8 ppm. The Activity (Biomphalaria glabrata [40]) was 70.8 ppm, the Activity (Biomphalaria glabrata [41]) was 69.6 ppm and the Activity (Biomphalaria glabrata [42]) was 90.4 ppm. For the same molecule, the Activity (Biomphalaria glabrata [43]) was 89 ppm.
